Patent US20230293526A1, “METHOD FOR TREATING CANCER WITH A REVERSE TRANSCRIPTASE INHIBITOR” (PrimeFour Therapeutics, Inc., priority 2020, published 2023)
pIC50: −log10 of the molar value.

Assays:
[1] = test system: human LINE-1; test: Human LINE-1 (L1) retrotransposition dual-luciferase reporter assay in HeLa cells; assay type: cell-based; conditions: Homo sapiens, HeLa, 72 h, read-out: Human LINE-1 IC50 (Human L1 activity inhibition)
Outline: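 Compound dilution series (final DMSO 0.2%) added right after transfecting HeLa cells with the pYX017 L1 dual-luciferase reporter; 72 h culture at 37 °C, 5% CO2, triplicates. IC50 fitted by non-linear logistic regression to firefly-to-Renilla luminescence ratio (×10,000).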

[2] = test system: cancer cell lines; test: Cancer cell proliferation activity of representative nucleosides, CellTiterGlo 72 h (Example 7, Tables 8 and 9); assay type: cell-based
Outline: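 Percent viability was set against 0.1% DMSO (100%) and 10 μM staurosporine (0%), with signal from CellTiterGlo luminescence. Dose-response treatment began one day after seeding and lasted 72 h at 37° C under 5% or 10% CO2, with 0.1% final DMSO.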

pIC50 [1]: 7.04 | pIC50 ([2]; 72 h, 5637, 72 h (Table 9)): < 4.30 | pIC50 ([2]; 72 h, CLS439, 72 h (Table 9)): < 4.30 | pIC50 ([2]; 72 h, HS729, 72 h (Table 9)): < 4.30 | pIC50 ([2]; 72 h, J82, 72 h (Table 9)): < 4.30 | pIC50 ([2]; 72 h, JAR, 72 h (Table 9)): < 4.30 | pIC50 ([2]; 72 h, MT3, 72 h (Table 9)): < 4.30 | pIC50 ([2]; 72 h, PC3, 72 h (Table 9)): < 4.30 | pIC50 ([2]; 72 h, RD, 72 h (Table 9)): < 4.30 | pIC50 ([2]; 72 h, T24, 72 h (Table 9)): < 4.30 | pIC50 ([2]; Homo sapiens, 22Rv1, 72 h, 22RV1, 72 h (Table 9)): < 4.30 | pIC50 ([2]; Homo sapiens, 786-0, 72 h, 786O, 72 h (Table 9)): < 4.30 | pIC50 ([2]; Homo sapiens, A204, 72 h, A204, 72 h (Table 9)): 6.39 | pIC50 ([2]; Homo sapiens, A549, 72 h, A549, 72 h (Table 9)): < 4.30 | pIC50 ([2]; Homo sapiens, A673, 72 h, A673, 72 h (Table 9)): < 4.30 | pIC50 ([2]; Homo sapiens, A2780, 72 h, A2780, 72 h (Table 9)): < 4.30 | pIC50 ([2]; Homo sapiens, A-375, 72 h, A375, 72 h (Table 9)): < 4.30 | pIC50 ([2]; Homo sapiens, A-431, 72 h, A431, 72 h (Table 9)): 4.77 | pIC50 ([2]; Homo sapiens, ACHN, 72 h, 72 h (Table 9)): 5.73 | pIC50 ([2]; Homo sapiens, ASPC1, 72 h, ASPC1, 72 h (Table 9)): 5.61 | pIC50 ([2]; Homo sapiens, BT-20, 72 h, BT20, 72 h (Table 9)): < 4.30 | pIC50 ([2]; Homo sapiens, BXPC-3, 72 h, BXPC3, 72 h (Table 9)): < 4.30 | pIC50 ([2]; Homo sapiens, C-33-A, 72 h, C33A, 72 h (Table 9)): < 4.30 | pIC50 ([2]; Homo sapiens, CAKI-1, 72 h, CAKI1, 72 h (Table 9)): 5.53 | pIC50 ([2]; Homo sapiens, COLO 205, 72 h, COLO205, 72 h (Table 9)): < 4.30 | pIC50 ([2]; Homo sapiens, COLO-678, 72 h, COLO678, 72 h (Table 9)): < 4.30 | pIC50 ([2]; Homo sapiens, Ca-Ski, 72 h, CASKI, 72 h (Table 9)): < 4.30 | pIC50 ([2]; Homo sapiens, Caco-2, 72 h, CACO2, 72 h (Table 9)): < 4.30 | pIC50 ([2]; Homo sapiens, Calu-6, 72 h, CALU6, 72 h (Table 9)): < 4.30 | pIC50 ([2]; Homo sapiens, DLD-1, 72 h, DLD1, 72 h (Table 9)): < 4.30 | pIC50 ([2]; Homo sapiens, DU-145, 72 h, DU145, 72 h (Table 9)): 5.85 | pIC50 ([2]; Homo sapiens, EFO-21, 72 h, EFO21, 72 h (Table 9)): < 4.30 | pIC50 ([2]; Homo sapiens, EJ-28, 72 h, EJ28, 72 h (Table 9)): < 4.30 | pIC50 ([2]; Homo sapiens, Granta-519, 72 h, GRANTA-519, 72 h (Table 9)): 5.87 | pIC50 ([2]; Homo sapiens, HCT-15, 72 h, HCT15, 72 h (Table 9)): < 4.30 | pIC50 ([2]; Homo sapiens, HCT-116, 72 h, HCT116, 72 h (Table 9)): < 4.30 | pIC50 ([2]; Homo sapiens, HEK293, 72 h, HEK293, 72 h (Table 9)): < 4.30 | pIC50 ([2]; Homo sapiens, HL-60, 72 h, HL-60, 72 h (Table 9)): 5.47 | pIC50 ([2]; Homo sapiens, HT-29, 72 h, HT29, 72 h (Table 9)): < 4.30 | pIC50 ([2]; Homo sapiens, HT-1080, 72 h, HT1080, 72 h (Table 9)): < 4.30 | pIC50 ([2]; Homo sapiens, HeLa, 72 h, 72 h (Table 9)): < 4.30 | pIC50 ([2]; Homo sapiens, HepG2, 72 h, HEPG2, 72 h (Table 9)): 5.20 | pIC50 ([2]; Homo sapiens, Hs-578T, 72 h, HS578T, 72 h (Table 9)): < 4.30 | pIC50 ([2]; Homo sapiens, IGROV-1, 72 h, IGROV1, 72 h (Table 9)): < 4.30 | pIC50 ([2]; Homo sapiens, IMR-90, 72 h, IMR90, 72 h (Table 9)): < 4.30 | pIC50 ([2]; Homo sapiens, JEG-3, 72 h, JEG3, 72 h (Table 9)): < 4.30 | pIC50 ([2]; Homo sapiens, JIMT-1, 72 h, JIMT1, 72 h (Table 9)): 5.07 | pIC50 ([2]; Homo sapiens, K562, 72 h, K-562, 72 h (Table 9)): < 4.30 | pIC50 ([2]; Homo sapiens, Kasumi 1, 72 h, KASUMI-1, 72 h (Table 9)): 4.73 | pIC50 ([2]; Homo sapiens, L-363, 72 h, L-363, 72 h (Table 9)): < 4.30 | pIC50 ([2]; Homo sapiens, LoVo, 72 h, 72 h (Table 9)): < 4.30 | pIC50 ([2]; Homo sapiens, MCF7, 72 h, MCF7, 72 h (Table 9)): < 4.30 | pIC50 ([2]; Homo sapiens, MDA-MB-231, 72 h, MDAMB231, 72 h (Table 9)): 5.27 | pIC50 ([2]; Homo sapiens, MDA-MB-435, 72 h, MDAMB435, 72 h (Table 9)): < 4.30 | pIC50 ([2]; Homo sapiens, MDA-MB-436, 72 h, MDAMB436, 72 h (Table 9)): < 4.30 | pIC50 ([2]; Homo sapiens, MDA-MB-468, 72 h, MDAMB468, 72 h (Table 9)): < 4.30 | pIC50 ([2]; Homo sapiens, MG-63, 72 h, MG63, 72 h (Table 9)): < 4.30 | pIC50 ([2]; Homo sapiens, MHH-ES-1, 72 h, MHHES1, 72 h (Table 9)): 5.71 | pIC50 ([2]; Homo sapiens, MIA PaCa-2, 72 h, MIAPACA2, 72 h (Table 9)): < 4.30 | pIC50 ([2]; Homo sapiens, MINO, 72 h, 72 h (Table 9)): 5.31 | pIC50 ([2]; Homo sapiens, MV4-11, 72 h, MV4-11, 72 h (Table 9)): < 4.30 | pIC50 ([2]; Homo sapiens, NCI-H23, 72 h, NCI-H23, 72 h (Table 9)): < 4.30 | pIC50 ([2]; Homo sapiens, NCI-H82, 72 h, NCIH82, 72 h (Table 9)): < 4.30 | pIC50 ([2]; Homo sapiens, NCI-H292, 72 h, NCIH292, 72 h (Table 9)): 5.33 | pIC50 ([2]; Homo sapiens, NCI-H460, 72 h, NCIH460, 72 h (Table 9)): < 4.30 | pIC50 ([2]; Homo sapiens, OVCAR-3, 72 h, OVCAR3, 72 h (Table 9)): < 4.30 | pIC50 ([2]; Homo sapiens, OVCAR-4, 72 h, OVCAR4, 72 h (Table 9)): < 4.30 | pIC50 ([2]; Homo sapiens, PANC-1, 72 h, PANC1, 72 h (Table 9)): < 4.30 | pIC50 ([2]; Homo sapiens, PLC-PRF-5, 72 h, PLCPRF5, 72 h (Table 9)): < 4.30 | pIC50 ([2]; Homo sapiens, Panc1005, 72 h, PANC1005, 72 h (Table 9)): < 4.30 | pIC50 ([2]; Homo sapiens, Ramos, 72 h, 72 h (Table 9)): 5.71 | pIC50 ([2]; Homo sapiens, SAOS-2, 72 h, SAOS2, 72 h (Table 9)): < 4.30 | pIC50 ([2]; Homo sapiens, SF-268, 72 h, SF268, 72 h (Table 9)): < 4.30 | pIC50 ([2]; Homo sapiens, SF-295, 72 h, SF295, 72 h (Table 9)): < 4.30 | pIC50 ([2]; Homo sapiens, SK-BR-3, 72 h, SKBR3, 72 h (Table 9)): 5.46 | pIC50 ([2]; Homo sapiens, SK-HEP1, 72 h, SKHEP1, 72 h (Table 9)): < 4.30 | pIC50 ([2]; Homo sapiens, SK-LMS-1, 72 h, SKLMS1, 72 h (Table 9)): < 4.30 | pIC50 ([2]; Homo sapiens, SK-MEL-5, 72 h, SKMEL5, 72 h (Table 9)): < 4.30 | pIC50 ([2]; Homo sapiens, SK-MEL-28, 72 h, SKMEL28, 72 h (Table 9)): < 4.30 | pIC50 ([2]; Homo sapiens, SK-N-AS, 72 h, SKNAS, 72 h (Table 9)): < 4.30 | pIC50 ([2]; Homo sapiens, SK-N-SH, 72 h, SKNSH, 72 h (Table 9)): 5.16 | pIC50 ([2]; Homo sapiens, SK-OV-3, 72 h, SKOV3, 72 h (Table 9)): < 4.30 | pIC50 ([2]; Homo sapiens, SNB-75, 72 h, SNB75, 72 h (Table 9)): < 4.30 | pIC50 ([2]; Homo sapiens, SU-DHL10, 72 h, SU-DHL-10, 72 h (Table 9)): < 4.30 | pIC50 ([2]; Homo sapiens, SU-DHL-6, 72 h, SU-DHL-6, 72 h (Table 9)): 5.38 | pIC50 ([2]; Homo sapiens, SW-620, 72 h, SW620, 72 h (Table 9)): < 4.30 | pIC50 ([2]; Homo sapiens, TE-671, 72 h, TE671, 72 h (Table 9)): < 4.30 | pIC50 ([2]; Homo sapiens, THP-1, 72 h, THP-1, 72 h (Table 9)): 5.69 | pIC50 ([2]; Homo sapiens, U2OS, 72 h, 72 h (Table 9)): < 4.30 | pIC50 ([2]; Homo sapiens, U-87 MG, 72 h, U87MG, 72 h (Table 9)): 4.73 | pIC50 ([2]; Homo sapiens, UMUC3, 72 h, UMUC3, 72 h (Table 9)): < 4.30 | pIC50 ([2]; Homo sapiens, UO-31, 72 h, UO31, 72 h (Table 9)): 4.95 | pIC50 ([2]; Homo sapiens, WSU-NHL, 72 h, 72 h (Table 9)): 5.61 | pIC50 ([2]; NCI-H358M, 72 h, NCIH358M, 72 h (Table 9)): 5.34 | pIC50 ([2]; PBMC, 72 h, 72 h (Table 9)): < 4.30 | pIC50 ([2]; RD-ES, 72 h, RDES, 72 h (Table 9)): < 4.30
SMILES: Nc1nc(=O)n([C@@H]2C=C[C@H](CO)O2)cc1F [Elvucitabine, reference compound]
